We go through three compounds from patent US20250009743A1, “METHODS OF TREATING CANCERS USING STING AGONISTS” (Dana-Farber Cancer Institute, Inc., priority 2021, published 2025).

For test [1], the system named is human BMDMs. The experiment in a line: Polarization of human BMDMs cultured in CM from ovarian PDXs. It counts as cell-based. As for the experimental part:
For ex vivo culture of human macrophages, human BMDMs were generated from bone marrow mononuclear cells (BMMs) (CAT #70001) obtained from […] Technologies. Briefly, BMMs were cultured in DMEM containing 10% FBS, 55 μM 2-Mercaptoethanol (CAT #21985023, Thermo Fisher) and 50 ng/ml M-CSF for 5-7 days with media replacement every 3 days to obtain matured macrophages (BMDMs). […] Flow cytometry analysis was preformed to analyze the phenotypes of macrophages for both mouse and human BMDMs.

The subject of test [2] is BP tumors. The experiment in a line: Flow cytometry of intratumoral immune cells of BP tumors. Type of test: in vivo, mouse. As for the experimental part:
To obtain single-cell suspensions, tumors were excised, minced and dissociated in collagenase/hyaluronidase buffer [DMEM with 5% FBS, 10 mM HEPES (Gibco), 100 μg/mL penicillin-streptomycin, 20 μg/mL DNase I (StemCell) and 1× collagenase/hyaluronidase (StemCell)] for 45 min at 37° C. with agitation, followed by treatment with ammonium-chloride-potassium (ACK) buffer (Lonza) for red blood cell (RBC) lysis, and strained through a 70 μm strainer to remove undigested tumor tissues. Spleens and tumor-draining lymph nodes (TDLNs) were mechanically dissociated by passing the tissues through a 70 μm strainer using the plunger of a 5 ml syringe, and RBCs were lysed as described above.
For flow cytometry analyses of tumor and TDLN samples, single-cell suspensions were obtained as described above (Tissue Digestion). Cells were stained in cold FACS buffer (PBS containing 0.2% BSA and 5 mM EDTA) with LIVE/DEAD Fixable Aqua Dead Cell Stain (Thermo Fisher) for 30 min on ice, followed by blocking with anti-CD16/32 (BioLegend) for 20 min on ice. Cells were then incubated in FACS buffer for 30 min on ice with antibodies specific to CD45 (clone 30-F11, BioLegend), TCR β chain (clone H57-597, BioLegend), CD38 (clone 145-2C11, BioLegend), CD4 (clone RM4-5, BioLegend), CD8a (clone 53-6.7, BioLegend), PD-1 (clone 29F.1A12, BioLegend), CD44 (clone IM7, BioLegend), CD62L (clone MEL-14, BioLegend), IFN-γ (clone XMG1.2, BioLegend), TNF-α (clone MP6-XT22, BioLegend), Granzyme B (clone NGZB, eBioscience), CD11c (clone N418, BioLegend), I-A/I-E (clone M5/114.15.2, BioLegend), CD80 (clone 16-10A1, BioLegend), CD86 (clone GL-1, BioLegend), CD103 (clone 2E7, BioLegend), CD11b (M1/70, BioLegend), F4/80 (clone BM8, BioLegend), phospho-TBK1 (Ser172) (clone D52C2, Cell Signaling Tech.) or phospho-IRF-3 (Ser396) (clone D601M, Cell Signaling Tech.). For intracellular staining, Foxp3/Transcription Factor Staining Buffer Set (eBioscience, #00-5523-00) was used for fixation and permeabilization. For cytokine analysis, cells were stimulated with Leukocyte Activation Cocktail with protein transport inhibitor Brefeldin A (BD Biosciences, #550583) at 37° C. for 4 hours prior to the staining. Analysis of ϵ-HA2X (Ser139) was performed according to manufacturer's instructions. Briefly, ice-cold 70% ethanol (Decon) was added dropwise to the cell pellet while vortexing. Cells were then incubated at −20° C. for 1 hour and washed three times with cold staining buffer. For the staining, 5 μL p-HA2X antibody (clone 2F3, BioLegend) was added to approximately 1×10^6 cells in 100 μL staining buffer and incubated at 4° C. for 30 min. For Annexin V and 7-AAD staining, cells were detached with accutase (Sigma, #A6964). […] All data were analyzed using FlowJo software.
In general terms: In flow cytometry, cells or beads pass a laser one at a time.

The test system of test [3] is bone marrow-derived DCs. The experiment in a line: STING pathway activation in DCs co-cultured with BP tumor cells. It counts as cell-based, mouse. As for the experimental part: For flow cytometry analyses of tumor and TDLN samples, single-cell suspensions were obtained as described above (Tissue Digestion). Cells were stained in cold FACS buffer (PBS containing 0.2% BSA and 5 mM EDTA) with LIVE/DEAD Fixable Aqua Dead Cell Stain (Thermo Fisher) for 30 min on ice, followed by blocking with anti-CD16/32 (BioLegend) for 20 min on ice. Cells were then incubated in FACS buffer for 30 min on ice with antibodies specific to CD45 (clone 30-F11, BioLegend), TCR β chain (clone H57-597, BioLegend), CD38 (clone 145-2C11, BioLegend), CD4 (clone RM4-5, BioLegend), CD8a (clone 53-6.7, BioLegend), PD-1 (clone 29F.1A12, BioLegend), CD44 (clone IM7, BioLegend), CD62L (clone MEL-14, BioLegend), IFN-γ (clone XMG1.2, BioLegend), TNF-α (clone MP6-XT22, BioLegend), Granzyme B (clone NGZB, eBioscience), CD11c (clone N418, BioLegend), I-A/I-E (clone M5/114.15.2, BioLegend), CD80 (clone 16-10A1, BioLegend), CD86 (clone GL-1, BioLegend), CD103 (clone 2E7, BioLegend), CD11b (M1/70, BioLegend), F4/80 (clone BM8, BioLegend), phospho-TBK1 (Ser172) (clone D52C2, Cell Signaling Tech.) or phospho-IRF-3 (Ser396) (clone D601M, Cell Signaling Tech.). For intracellular staining, Foxp3/Transcription Factor Staining Buffer Set (eBioscience, #00-5523-00) was used for fixation and permeabilization. […] All data were analyzed using FlowJo software. […]

The test system of test [4] is mouse bone marrow-derived macrophages (BMDMs). The experiment in a line: Polarization of mouse BMDMs / tumor cell-educated macrophages (flow cytometry, RNA-seq, morphology). It counts as cell-based. As for the experimental part:
Mouse macrophages and dendritic cells (DCs) were derived from the bone marrow (BM) of FVB/NJ mice by modifying protocols described in (Weischenfeldt J, Porse B. CSH Protoc 2008; Guo X, et al. J Immunol Methods 2016; 432:24-9). For generation of BM-derived macrophages (BMDMs), BM cells were seeded on ultra-low attachment plates (Corning) or petri dishes (Falcon) and cultured in DMEM supplemented with 10 ng/ml M-CSF (BioLegend, #576404), 10% FBS and 100 μg/mL penicillin-streptomycin. Fresh DMEM with 10 ng/ml M-CSF was added after 3 days, and cells were incubated for another 4 days before harvesting adherent cells (BMDMs). For DC differentiation, BM cells were seeded on tissue culture dishes (Corning) and cultured in RPMI 1640 supplemented with 20 ng/mL GM-CSF (Stem Cell Technologies, #78017), 10% FBS and 100 μg/mL penicillin-streptomycin. Fresh RPMI 1640 with 20 ng/mL GM13 CSF was added after 3 days, and non-adherent cells (DCs) were harvested after another 4 days. For preparation of tumor cell-conditioned media (CM), tumor cells were grown to 60% of confluence, washed twice with PBS, and then incubated with fresh DMEM for two days. CM were then harvested and centrifuged to collect the supernatant.
For flow cytometry analyses of tumor and TDLN samples, single-cell suspensions were obtained as described above (Tissue Digestion). Cells were stained in cold FACS buffer (PBS containing 0.2% BSA and 5 mM EDTA) with LIVE/DEAD Fixable Aqua Dead Cell Stain (Thermo Fisher) for 30 min on ice, followed by blocking with anti-CD16/32 (BioLegend) for 20 min on ice. Cells were then incubated in FACS buffer for 30 min on ice with antibodies specific to CD45 (clone 30-F11, BioLegend), TCR β chain (clone H57-597, BioLegend), CD38 (clone 145-2C11, BioLegend), CD4 (clone RM4-5, BioLegend), CD8a (clone 53-6.7, BioLegend), PD-1 (clone 29F.1A12, BioLegend), CD44 (clone IM7, BioLegend), CD62L (clone MEL-14, BioLegend), IFN-γ (clone XMG1.2, BioLegend), TNF-α (clone MP6-XT22, BioLegend), Granzyme B (clone NGZB, eBioscience), CD11c (clone N418, BioLegend), I-A/I-E (clone M5/114.15.2, BioLegend), CD80 (clone 16-10A1, BioLegend), CD86 (clone GL-1, BioLegend), CD103 (clone 2E7, BioLegend), CD11b (M1/70, BioLegend), F4/80 (clone BM8, BioLegend), phospho-TBK1 (Ser172) (clone D52C2, Cell Signaling Tech.) or phospho-IRF-3 (Ser396) (clone D601M, Cell Signaling Tech.). For intracellular staining, Foxp3/Transcription Factor Staining Buffer Set (eBioscience, #00-5523-00) was used for fixation and permeabilization. For cytokine analysis, cells were stimulated with Leukocyte Activation Cocktail with protein transport inhibitor Brefeldin A (BD Biosciences, #550583) at 37° C. for 4 hours prior to the staining. Analysis of ϵ-HA2X (Ser139) was performed according to manufacturer's instructions. Briefly, ice-cold 70% ethanol (Decon) was added dropwise to the cell pellet while vortexing. Cells were then incubated at −20° C. for 1 hour and washed three times with cold staining buffer. For the staining, 5 μL p-HA2X antibody (clone 2F3, BioLegend) was added to approximately 1×10^6 cells in 100 μL staining buffer and incubated at 4° C. for 30 min. For Annexin V and 7-AAD staining, cells were detached with accutase (Sigma, #A6964). The detached cells (from culture medium and accutase treatment) were washed twice with cold PBS, and then incubated with 5 μL FITC Annexin V (BioLegend, #640906) and 10 μL 7-AAD (BioLegend, #420404) in 100 μL Annexin V binding buffer (BioLegend, #422201) at room temperature for 15 min. Flow cytometry was performed on an LSR Fortessa HTS analyzer (BD Biosciences). All data were analyzed using FlowJo software.
For in vitro co-culture of tumor cells with macrophages, 2×10^5 tumor cells per well were co-cultured with macrophages at a ratio of 1:1 (BP cells: mouse BMDMs) or 1:1.5 (MDA-MB-436 cells: THP-1 macrophages) in 6-well plates with indicated drug treatments or DMSO vehicle control for two days. […]

The mark [5] stands for this setting: BMDMs with BP-CM or BP/OL-CM, DMXAA 0.05 mg/mL, 24 hours, FIG. 7A.

Take `COc1cc2cc(C(=O)CCC(=O)O)sc2cc1OC` [MSA-2]: the “M2-like macrophage polarization induced by ovarian PDXs” value in test [1] (MSA-2 added, FIG. 25E) is “reversed”.
Take `Cc1ccc2c(=O)c3cccc(CC(=O)O)c3oc2c1C` [DMXAA, 5,6-dimethyl-xanthenone-4-acetic acid]: in test [2] (after 21 days of treatments, DMXAA intratumoral, FIG. 9B-9C), the “production of anti-tumor cytokines (IFNg, Granzyme B, TNFa) in CD8+ and CD4+ T cells” value is listed as “strongly up-regulated”. The “activation of STING pathway in co-cultured DCs” value in test [3] (BP cells treated with CM of DMXAA-pre-treated TEMs, then olaparib, FIG. 7I) was “restored”. Also, the “CD86 expression of STING−/− TEMs” value in test [4] (BMDMs from STING knockout mice, DMXAA 2 days, FIG. 7F) is reported as “failed to increase”. For the same compound, the macrophage morphology entry in test [4] (BMDMs incubated with BP-CM, DMXAA 0.05 mg/mL, 24 hours, FIG. 8B) is reported as “changed these cells to a “fried egg” shape”. In addition, in test [4] (setting [5]), the “expression of genes of anti-tumorigenic M1 signature” value is given as “strongly stimulated” and the “expression of pro-tumorigenic M2 genes” value is “suppressed”. Besides, in test [4] (BP TEMs, DMXAA 0.05 mg/mL, two days, FIG. 7C), the “M1-like to M2-like ratio of TEMs” value was “reversed TEMs to M1-like macrophages”. The “TEM STING pathway activation (p-TBK1+p-IRF3+)” value in test [4] (BP TEMs, DMXAA 24 hours, FIG. 7D) was “significantly increased”.
Take `O=C(c1cc(Cc2n[nH]c(=O)c3ccccc23)ccc1F)N1CCN(C(=O)C2CC2)CC1` [olaparib]: the “M2-like polarization induced by ovarian PDXs” value in test [1] (CM of olaparib-treated PDXs, FIG. 25C) is reported as “further enhance”. The “population of tumor-associated macrophages (TAMs)” value in test [2] (21 days of treatment) is on record as “not significantly affected”. Moreover, in test [2] (after seven days of treatment), the “CD8+ T cells and effector CD8+ T cells in tumors” value is reported as “not significantly changed”; the “proportion of PD-1+CD8+ T cells” value was “increased”. In addition, the “STING pathway activation (p-TBK1+ p-IRF3+) in DCs” value in test [3] (DCs co-cultured 24 hours with olaparib-treated BP cells, FIG. 5I) is “activated the STING pathway in DCs”. Further, in test [4] (olaparib 5 μM, 24 hours, FIG. 3C), the “gene expression of BMDMs (RNA-seq)” value is on record as “no significant direct effects”. The “macrophage polarization (M1-like / M2-like)” value in test [4] (olaparib alone, two days, FIG. 3B) is listed as “little effect”.
